From patent US20110201648A1, “POLY-HETEROARYL DERIVATIVES FOR THE TREATMENT OF CANCER” (INSTITUT CURIE, priority 2008, published 2011)

What was measured:
[1] = UV-Vis titrations for solubility; assay type: physicochemical
Protocol: The study of UV-vis properties of pyridine-based polyheteroaromatic compounds detailed in this study enable the determination of their solubility in various conditions (DMSO, H2O and cacodylate buffers (10 mM sodium cacodylate+100 mM NaCl (for Caco.Na) or KCl (for Caco.K)): the simplest method for this is to measure the absorption spectra of compound 3 at various concentrations (from 0 to 32 μM); solubility of compound 3 is thus evaluated through the reporting of its absorbance at a given wavelength (herein 338 nm (A338)) as a function of the concentration of compound 3 and applying the Beer-Lambert law.

[2] = test system: F21T (human telomeric quadruplex-DNA); assay: FRET-melting assay with F21T; assay type: binding; conditions: for ΔT1/2 F21T: 0.2 μM F21T, 1 μM compound; for F21T stabilization maintained: sodium buffer
Protocol: (§1) Stabilization, and so interaction, of compounds with quadruplex-structure is monitored via FRET-melting assay, in a version that also enables the determination of the quadruplex-over duplex-DNA selectivity as well as the intra-quadruplex selectivity (17).
(§2) FRET assay is performed with oligonucleotides that mimic the human or plasmodium telomeric sequences, and equipped with FRET partners at each extremities: F21T (FAM-G3[T2AG3]3-Tamra,) FPf1T (FAM-G3[T3AG3]3-Tamra) and FPf8T (FAM-G3[T2CAG3]3-Tamra) with FAM: 6-carboxyfluorescein and Tamra: 6-carboxy-tetramethylrhodamine). Measurements were made with excitation at 492 nm and detection at 516 nm.
(§3) Fluorescence melting were carried out. The results are given on FIG. 3A-FIG. 3C. The experiments were carried out with 0.2 μM of F21T, FPf1T or FPf8T in a buffer containing 10 mM lithium cacodylate pH 7.2 and 100 mM NaCl or KCl (see example of F21T below, NaCl (left) and KCl (right)); the melting of the quadruplex-DNA was monitored alone and in the presence of 1 μM (5 equiv.) of compound 3.
Fluorescence melting are carried out with 0.2 μM of F21T in a buffer containing 10 mM lithium cacodylate pH 7.2 and 100 mM NaCl; the melting of the G-quadruplex was monitored alone and in the presence of 1 μM of compound 3 without or with excess (1, 3 and 10 μM) of duplex-DNA competitor ds26 (a 26 base-pair duplex-DNA comprised of the self complementary sequence [5′-[…]-3′]). The results are given on FIG. 4
Fluorescence melting experiments are carried out with 0.2 μM of F21T in a buffer containing 10 mM lithium cacodylate pH 7.2 and 100 mM NaCl; the melting of the G-quadruplex was monitored alone and in the presence of 1 μM of compound 3 without or with excess (1, 3 and 10 μM) of quadruplex-DNA competitors, both TG5T ([(5′-TG5T-3′)4], a tetramolecular quadruplex-DNA used in previous study (21) or c-myc ([5′-[…]-3′], a sequence present in the promoter region of the oncogene c-myc, highly suspected to fold into an intramolecular quadruplex-structure (22-25). The results are given on FIG. 5A-FIG. 5B.
FIG. 16 gives results obtained in FRET-melting, using the same sodium conditions as above defined in a) and b), with compounds 3 and 4. The melting of the Fluorescently labelled quadruplex F21T was monitored alone and in the presence of 1 μM of compound 3 or compound 4 without or with excess (1.3 and 10 μM) of duplex-DNA competitor ds26 (a 26 base-pair duplex DNA comprised the above mentioned self-complementary sequence [5′-[…]-3′]).

[3] = test system: FPf8T (plasmodium telomeric quadruplex-DNA); assay: FRET-melting assay with FPf8T; assay type: binding, Plasmodium falciparum; conditions: 0.2 μM FPf8T, 1 μM compound
Protocol: as §1, §2, §3

[4] = Fluorescence quantum yield; assay type: physicochemical; conditions: anthracene in ethanol as reference
Protocol: Pyridine-based polyheteroaromatic compounds detailed in this study are characterized by a strong fluorescence. Remarkably, the quantum yield is not affected by the nature of the solvent they are used in, from pure organic (e.g. DMSO) to physiological conditions (e.g. buffer: 10 mM sodium cacodylate+100 mM KCl, pH 7.2, see Table). The modification of the fluorescence properties of studied compounds upon interaction with DNA enables to compare their apparent binding affinity for several quadruplexes of biological relevance (27).
NB: the quantum yields (and standard deviations (s.d.)) of compound 3 were measured in CH2Cl2 (DCM) and water, with anthracene in ethanol as reference.

[5] = test system: 22AG quadruplex-DNA (human telomeric sequence); assay: Fluorescence titration with 22AG; assay type: binding; conditions: 0.25 μM compound, λex=340 nm
Protocol: The quadruplex-DNA used herein is 22AG: it results from the folding of a 22 nt oligonucleotide that mimics the human telomeric sequence: 22AG is [5′-AG3(T2AG3)3-3′]. Quadruplex-structure from 22AG is prepared by heating the corresponding oligonucleotide at 90° C. for 5 min in a 10 mM sodium cacodylate buffer pH 7.2, 100 mM NaCl (for 22AG Na) or KCl (for 22AG K) and cooling in ice to favor the intramolecular folding by kinetic trapping. Concentrations are determined by UV-Vis measurements (after thermal denaturation, 5 min at 85° C.) at 260 nm before use. (see FIG. 7A and FIG. 7B).

[6] = test system: ds17 (17 base-pair duplex-DNA); assay: Fluorescence titration with ds17; assay type: binding; conditions: 0.25 μM compound, cacodylate buffer + 100 mM KCl, λex=340 nm
Protocol: The quadruplex-over duplex-selectivity is evaluated through fluorescence titrations by comparison of experiments carried out with 22AG (see above) and with a short duplex-DNA: ds17, which is a 17 base-pair duplex-DNA that represents a biological sequence used in previous studies (28); the sequences of the two complementary strands are the following: [5′-CCAGTTCGTAGTAACCC-3′]/[5′-GGGTTACTACGAACTGG-3′]. Duplex-structure is prepared by heating the two corresponding complementary strands at 90° C. for 5 min in a 10 mM sodium cacodylate buffer pH 7.3, 100 mM KCl followed by a slow cooling over 6 hrs. Concentrations are determined by UV-Vis measurements (after thermal denaturation, 5 min at 85° C.) at 260 nm before use.

c1cc(-c2cnc(-c3cccc(-c4cnco4)n3)o2)nc(-c2cnc(-c3cccc(-c4cnco4)n3)o2)c1 [compound 3, 2,6-bis{2-[6-(oxazol-5-yl)pyridin-2-yl]oxazol-5-yl}pyridine]
solubility ([1]; DMSO, H2O and aqueous cacodylate buffers (Na+ or K+-rich), A338, 0 to 32 μM): soluble in all the solvent systems used herein
self-aggregation ([1]; within the 0 to 32 μM concentration range, all solvent systems): does not self-aggregate
ΔT1/2 F21T ([2]; K+ (100 mM KCl)): 1.3 °C
ΔT1/2 F21T ([2]; Na+ (100 mM NaCl)): 14.6 °C
F21T stabilization maintained ([2]; 1 μM of TG5T competitor): 61%
F21T stabilization maintained ([2]; 1 μM of c-myc competitor): 42%
F21T stabilization maintained ([2]; 3 μM of TG5T competitor): 37%
F21T stabilization maintained ([2]; 3 μM of c-myc competitor): 15%
F21T stabilization maintained ([2]; 10 μM of TG5T competitor): 17%
F21T stabilization maintained ([2]; 10 μM of c-myc competitor): 1%
F21T stabilization maintained ([2]; in presence of 1, 3 or 10 μM of ds26 duplex competitor): > 91%
ΔT1/2 FPf8T ([3]; K+ (100 mM KCl)): 1.5 °C
ΔT1/2 FPf8T ([3]; Na+ (100 mM NaCl)): 16.3 °C
Quantum yield ([4]; DCM (CH2Cl2)): 50.35%
Quantum yield ([4]; Water): 50.37%
fluorescence of compound upon addition of 22AG K ([5]; cacodylate buffer + 100 mM KCl): progressive quench of the fluorescence
fluorescence of compound upon addition of 22AG Na ([5]; cacodylate buffer + 100 mM NaCl): progressive quench of the fluorescence
fluorescence of compound upon addition of ds17 [6]: do not result in a progressive quench of the fluorescence
melting point: > 250 °C
